Patent US11160788B2, “Caspase-1 inhibition and uses thereof for prevention and treatment of neurological conditions” (priority 2016, dated 2021)
Entries after “also recorded” stand apart in the source; their conditions may differ.

Experiments:
Assay type in all cases: in vivo, mouse
J20 mice [1] = assay: Open field hyperactivity, treatment of symptomatic J20 mice; settings: for hyperactivity in open field: Treatment 2; for hyperactivity, distance travelled in open field: 50 mg/kg IP
From the text: FIG. 8: VX-765 treatment restores cognitive function in J20 mice. (a) Experimental paradigm. Intraperitoneal vehicle-injected wild type (WT+Vehicle; n=13) and J20 mice (J20+Vehicle: n=9), and VX-765-injected J20 mice (J20+VX-765: n=9) mice were behaviourally assessed at 5 different time-points: baseline before treatment (baseline untreated J20 were grouped together; n=18), after 3 IP injections/wk of VX-765 or vehicle (Treatment 1), after 6 additional injections over 2 weeks (Treatment 2), after 4-week Washout period, and after an additional 3 injections in one week (Treatment 3). Mice were sacrificed at 8 months of age after Treatment 3 (b) NOR Discrimination index (Treatment main effect, F(2,20)=85.8, p<0.0001; Time main effect, F(4,80)=4.188, p=0.0039; Treatment×Time interaction, F(8,80)=[…], two-way repeated-measures ANOVA, Dunnett's post-hoc compared to J20+Vehicle). (c) Distance traveled during Open Field task. Data analyzed by repeated measures two-way ANOVA (Treatment main effect, F(2,19)=11.47, p=0.0005; Treatment×Time interaction, F(8,76)=5.69, p<0.0001, two-way repeated-measures ANOVA, Dunnett's post-hoc compared to J20+Vehicle). (d-i) Barnes maze analysis. Learning acquisition (d,g), probe test primary latency and errors (e,h), and target hole preference (f,i); # of pokes of each hole labelled +1 to +9 to the right or −1 to −9 to the left of the target hole during the probe) after Treatment 2 (d-f) and Washout (g-i). Probe tests were analyzed (Treatment 2 primary latency, F(2,52)=5.879, p=0.0050; Treatment 2 primary errors, F(2,52)=9.998, p=0.0002; Washout primary latency, F(2,22)=4.076, p=0.0312; Washout primary errors, F(2,22)=10.84, p=0.0005, ANOVA, Tukey's post-hoc). * p<0.05, ***p<0.001, ****p<0.0001.
Anxiety and hyperactivity are monitored in an open-field paradigm, episodic memory with the NOR, spatial memory with the Barnes maze, and short or long term working memory with the Y maze before and after treatments. Repeated measures are acceptable for the NOR, Barnes and Y maze^2-4. […]

J20 mice [2] = assay: Synaptophysin immunostaining, preventive treatment of J20 mice
From the text: FIG. 4: Immunostainings of mice hippocampus at 4 months of age (PREVENTION GROUP) with microglial Iba-1, astrocyte GFAP, and synaptic synaptophysin antibodies.
FIG. 27: Synaptophysin immunopositive staining in the hippocampus of mice brains at different times of washout. All sections were immunostained together and automatically with Dako immunostainer.
We directly tested whether pre-symptomatic inhibition of inflammation in a mouse genetic model of Alzheimer disease can stem the progression of memory and behavioral deficits, and Alzheimer disease-like pathology. The J20 amyloid precursor protein Swedish/Indiana mutant mouse was treated at 2 months of age for a one month period with 50 mg/Kg Caspase-1 inhibitor VX-765 (FIG. 22a).

J20 mice [3] = assay: APP, Casp1, Casp6, IDE and neprilysin expression, treated symptomatic J20 mice; settings: RT-PCR, J20 brains, preliminary
From the text: FIG. 5: Western blot against the C-terminus (C11) and Aβ (6E10) regions of APP in TREATMENT mice groups before washout.
FIG. 11: VX-765 prevents the progression of Aβ in J20 mice. (a) Aβ immunohistographs of the stratum lacunosum molecular layer of the hippocampus and S1 cortex of pre-treated 5-month old J20 (baseline) and 8-month old vehicle- or VX-765-treated WT or J20 mice with anti-F2576 antiserum (Scale bar=50 μm). (b) Quantitative analysis comparing Aβ immunostaining density between J20+Vehicle (n=5) and J20+VX-765 (n=4) mice in the hippocampus from the pyramidal cell layer to the stratum lacunosum molecular layer (p=0.0029) and cortex (p=0.0314, unpaired t test). (c) Quantitative analysis comparing RIPA-soluble Aβ42 over total Aβ (Aβ38+Aβ40+Aβ42) levels in pre-treated 5-month old J20, 8-month old vehicle- or VX-765 treated J20 mice hippocampus (F(2,9)=6.614, p=0.0171, ANOVA, Tukey's post-hoc, * p<0.05). No ELISA signal was obtained from WT mice brains. (d) RIPA-soluble total Aβ measured by ELISA in pg/mg brain tissue. (e,f) Formic acid soluble Aβ42 over total Aβ (Aβ38+Aβ40+Aβ42) (e) and total Aβ (f) levels measured by ELISA in pg/mg brain tissue. Student t-test used to assess difference between J20+vehicle and J20+VX-765. (g,h,i) RIPA-soluble and (j,k,l) formic acid soluble Aβ38, Aβ40, and Aβ42 measured by ELISA in pg/mg brain tissue. […]

For `CCO[C@@H]1OC(=O)C[C@@H]1NC(=O)[C@@H]1CCCN1C(=O)[C@@H](NC(=O)c1ccc(N)c(Cl)c1)C(C)(C)C` [VX-765, (S)-1-((S)-2-{[1-(4-amino-3-chloro-phenyl)-methanoyl]-amino}-3,3-dimethyl-butanoyl)-pyrrolidine-2-carboxylic acid ((2R,3S)-2-ethoxy-5-oxo-tetrahydro-furan-3-yl)-amide], the “hyperactivity in open field” value (J20 mice [1]; 10 mg/kg) was “non-significant improvement at T2 with 25, but not 10”, the “hyperactivity in open field” value (J20 mice [1]; 25 mg/kg) was “non-significant improvement” and the “hyperactivity, distance travelled in open field” value (J20 mice [1]; Treatment 2 (3 weeks of treatment)) was “attenuated only after 3 weeks of treatment; also recorded: attenuated by VX-765 only after T2”. The “hyperactivity, distance travelled in open field” value (J20 mice [1]; Treatment 3) was “significantly reduced after T3”, the “hyperactivity, distance travelled in open field” value (J20 mice [1]; after washout) was “reappeared after WO” and the synaptophysin levels (J20 mice [2]; 4 month old J20 brains) was “impressive preservation of synaptophysin levels”. The synaptophysin immunostaining (J20 mice [2]; hippocampus, different times of washout) was “partly re-established” and the “Casp1 and Casp6 mRNA” value (J20 mice [3]) was “reduction”.
